Measurements reported in article PMC11859092 (Pharmaceutics, 2025).
In brackets after ≈: the same amount, converted by molar mass.

Assays:
[1] = cited from earlier work
[2] = cited from earlier work; remark: listed apart in the source
[3] = EFV solubilization in Soluplus nanomicelle dispersions (apparent aqueous solubility, RP-HPLC); conditions: distilled water, 25 °C
[4] = test system: DENV-2; experiment: microbe, parasite or virus in culture; type: cell-based, DENV type-2 (DENV-2) strain NGC; conditions: Dengue virus
[5] = test system: ZIKV; experiment: Virus yield inhibition assay (PFU); type: cell-based, ZIKV INEVH-116141 strain; conditions: Zika virus, m.o.i. 0.1, 48 h p.i.
[6] = test system: YFV; experiment: microbe, parasite or virus in culture; type: cell-based, YFV vaccine strain YF-17D; conditions: Yellow fever virus
[7] = In vitro cytotoxicity test (MTT); type: cell-based
Method: Thereafter, cell viability was determined by the 3-(4,5-dimethylthiazol-2-yl)-2,5-diphenyl tetrazolium bromide (MTT, Sigma-Aldrich, St. Louis, MO, USA) method at a final concentration 0.5 mg/mL. After 2 h of incubation at 37 °C, the supernatants were removed, ethanol was added to each well to solubilize the formazan crystals and absorbance was measured in a multi-mode microplate reader (FLUOstar® Omega, Labtech, Eschelbronn, Germany) at 595 nm. […] All determinations were performed in triplicate.

O=C1Nc2ccc(Cl)cc2[C@@](C#CC2CC2)(C(F)(F)F)O1 [EFV, Efavirenz]
biopharmaceutical classification system (BCS) class [1]: class II
intrinsic aqueous solubility [1]: 4 µg/mL
Cmax in humans [2]: 4000 ng/mL
PM molar partition coefficient (micelle/water) ([3]; Soluplus 1% w/v): 5368
P partition coefficient (micelle/water) ([3]; Soluplus 3% w/v): 1327
PM molar partition coefficient (micelle/water) ([3]; Soluplus 3% w/v): 5220
P partition coefficient (micelle/water) ([3]; Soluplus 5% w/v): 2247
PM molar partition coefficient (micelle/water) ([3]; Soluplus 5% w/v): 5303
P partition coefficient (micelle/water) ([3]; Soluplus 7% w/v): 3667
PM molar partition coefficient (micelle/water) ([3]; Soluplus 7% w/v): 6181
P partition coefficient (micelle/water) ([3]; Soluplus 10% w/v): 4802
PM molar partition coefficient (micelle/water) ([3]; Soluplus 10% w/v): 5666
EC50 ([4]; DENV2, A549, 48 h): 2.69 µg/mL (≈ 8.52 µM)
EC50 ([4]; DENV2, Vero, 48 h): 8.17 µg/mL (≈ 25.9 µM)
EC50 ([5]; ZIKV in A549 cells): 4.98 µg/mL (≈ 15.8 µM)
EC50 ([5]; ZIKV in Vero cells): 2.41 µg/mL (≈ 7.63 µM)
EC50 ([6]; A549, 48 h): 12.6 µg/mL (≈ 39.9 µM)
EC50 ([6]; Vero, 48 h): 1.48 µg/mL (≈ 4.69 µM)
CC50 at 48 h ([7]; African green monkey, Vero): 56.8 µg/mL (≈ 180 µM)
CC50 at 48 h ([7]; human, A549, 48 h): 126 µg/mL (≈ 399 µM)
